# According to the supplement of paper PMC4862054:
# What was measured:
# Settings in all cases: incubation time: 72 h
# [1] = test system: MDA-MB-231; experiment: normalised response (% of control), CellTox Green; higher = less cell death (100 = DMSO, 0 = benzethonium chloride kill control)
# How it was run: (§1)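 Plates were normalised with 0.1 % DMSO as 100 and a positive kill control as 0. Breast cancer cell lines in 20 µl suspension had been seeded into 384-well plates with compound at 5 concentrations in 10-fold steps over a compound-specific 10,000-fold range, incubated 72 h, and read for CellTox Green fluorescence (485/520 nm) followed by CellTiter-Glo luminescence. Each value is the normalised signal at a single concentration.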
# [2] = test system: MDA-MB-436; experiment: as above
# How it was run: as §1
# [3] = test system: CAL-85-1; experiment: as above
# How it was run: as §1
# [4] = test system: HCC1599; experiment: as above
# How it was run: as §1
# [5] = test system: MDA-MB-468; experiment: as above
# How it was run: as §1
# [6] = test system: CAL-120; experiment: as above
# How it was run: as §1
# [7] = test system: DU-4475; experiment: as above
# How it was run: as §1
# [8] = test system: HCC1143; experiment: as above
# How it was run: as §1
# [9] = test system: CAL-148; experiment: as above
# How it was run: as §1
# [10] = test system: HCC1937; experiment: as above
# How it was run: as §1
# [11] = test system: BT-549; experiment: as above
# How it was run: as §1
# [12] = test system: HDQ-P1; experiment: as above
# How it was run: as §1
# [13] = test system: MCF-10A; experiment: as above
# How it was run: as §1
# [14] = test system: MFM-223; experiment: as above
# How it was run: as §1
# [15] = test system: CAL-51; experiment: as above
# How it was run: as §1
# [16] = test system: MDA-MB-453; experiment: as above
# How it was run: as §1
# [17] = test system: BT-474; experiment: as above
# How it was run: as §1
# [18] = test system: Hs578T; experiment: as above
# How it was run: as §1
# [19] = test system: MDA-MB-231; experiment: normalised response (% of control), CellTiter-Glo; higher = more viable cells (100 = DMSO, 0 = benzethonium chloride kill control)
# How it was run: as §1
# [20] = test system: MDA-MB-436; experiment: as above
# How it was run: as §1
# [21] = test system: CAL-85-1; experiment: as above
# How it was run: as §1
# [22] = test system: HCC1599; experiment: as above
# How it was run: as §1
# [23] = test system: MDA-MB-468; experiment: as above
# How it was run: as §1
# [24] = test system: CAL-120; experiment: as above
# How it was run: as §1
# [25] = test system: DU-4475; experiment: as above
# How it was run: as §1
# [26] = test system: SK-BR-3; experiment: as above
# How it was run: as §1
# [27] = test system: HCC1143; experiment: as above
# How it was run: as §1
# [28] = test system: CAL-148; experiment: as above
# How it was run: as §1
# [29] = test system: HCC1937; experiment: as above
# How it was run: as §1
# [30] = test system: BT-549; experiment: as above
# How it was run: as §1
# [31] = test system: HDQ-P1; experiment: as above
# How it was run: as §1
# [32] = test system: MCF-10A; experiment: as above
# How it was run: as §1
# [33] = test system: MFM-223; experiment: as above
# How it was run: as §1
# [34] = test system: CAL-51; experiment: as above
# How it was run: as §1
# [35] = test system: MDA-MB-453; experiment: as above
# How it was run: as §1
# [36] = test system: BT-474; experiment: as above
# How it was run: as §1
# [37] = test system: Hs578T; experiment: as above
# How it was run: as §1
SMILES,normalised response [1] [%],normalised response [2] [%],normalised response [3] [%],normalised response [4] [%],normalised response [5] [%],normalised response [6] [%],normalised response [7] [%],normalised response [8] [%],normalised response [9] [%],normalised response [10] [%],normalised response [11] [%],normalised response [12] [%],normalised response [13] [%],normalised response [14] [%],normalised response [15] [%],normalised response [16] [%],normalised response [17] [%],normalised response [18] [%],normalised response [19] [%],normalised response [20] [%],normalised response [21] [%],normalised response [22] [%],normalised response [23] [%],normalised response [24] [%],normalised response [25] [%],normalised response [26] [%],normalised response [27] [%],normalised response [28] [%],normalised response [29] [%],normalised response [30] [%],normalised response [31] [%],normalised response [32] [%],normalised response [33] [%],normalised response [34] [%],normalised response [35] [%],normalised response [36] [%],normalised response [37] [%]
COc1cc([C@@H]2c3cc4c(cc3[C@@H](O[C@@H]3O[C@@H]5CO[C@@H](c6cccs6)O[C@H]5[C@H](O)[C@H]3O)[C@H]3COC(=O)[C@H]23)OCO4)cc(OC)c1O [Teniposide] (10000 nM),-78.1,80.5,-1.62,67,29.8,22.2,61.9,74.5,38.7,51,59,-41.5,59.6,48.8,13.6,105,59.4,45.6,15.6,17.1,8.03,5.92,7.53,23.6,4.51,6.25,10.8,4.81,22.8,5.21,34.3,51.8,12.9,14,64,9.52,6.65
COc1cc2nccc(Oc3ccc(NC(=O)Nc4cc(C)on4)c(Cl)c3)c2cc1OC [Tivozanib] (10000 nM),77.7,104,100,102,134,89.6,98,110,78.1,111,126,93.9,91.7,93.8,25,104,85.2,21.6,46,79.6,76.6,77.2,52.2,50.6,91.9,70.8,86.2,77.6,61.6,64.2,62.2,42.7,34.3,70.7,64.3,50.3,63.8
CC(=O)Nc1cccc(-n2c(=O)n(C3CC3)c(=O)c3c(Nc4ccc(I)cc4F)n(C)c(=O)c(C)c32)c1 [Trametinib] (250 nM),63.1,113,31.4,110,96,77.3,73.2,120,86,110,119,82.9,60.7,101,86.8,105,101,118,61.9,79.2,46.2,88.3,82.5,62.2,0.48,96.1,81.2,84.3,66.5,89,57.4,32.3,60.2,69,98,60.1,64.6
CC1=C(/C=C/C(C)=C/C=C/C(C)=C/C(=O)O)C(C)(C)CCC1 [Tretinoin] (10000 nM),36.8,88.9,55.4,102,127,101,98,84.1,102,61.1,76.9,80.3,73.5,103,98.5,94.4,68.7,75.1,63.5,79.2,56.5,61.6,81,98.2,89.9,21.8,84.7,75,72.3,62.2,90,60.7,78.9,86.2,56.4,62.2,72.9
COc1cc2c(NC3CCN(C(C)C)CC3)nc(C3CCCCC3)nc2cc1OCCCN1CCCC1 [UNC0638] (10000 nM),-58.7,18.6,-10.2,62.2,-186,-29.4,88.3,94.9,2.74,-27,17,58.6,-76.4,36.8,-16.4,-11.5,-17.5,13.9,0.6,7.47,0.26,14,0.31,8.51,71.8,2.89,36.4,3.47,13.6,1.52,23.3,0.31,3.95,17,0.34,2.59,51.9
Oc1ncc(N(CCCl)CCCl)c(O)n1 [Uracil mustard] (10000 nM),101,97.6,95.4,99.1,133,107,100,115,104,98.4,94.2,83.4,123,100,97.5,98,107,135,95.6,99.1,103,115,101,107,99.4,100,105,107,98.9,97.9,98.1,101,104,78.5,89.4,99.5,98.3
CCCCC(=O)OCC(=O)[C@]1(O)Cc2c(O)c3c(c(O)c2[C@@H](O[C@H]2C[C@H](NC(=O)C(F)(F)F)[C@H](O)[C@H](C)O2)C1)C(=O)c1c(OC)cccc1C3=O [Valrubicin] (5000 nM),205,147,170,196,548,128,147,176,119,183,208,134,157,118,106,150,112,193,47.7,35.4,37,24.8,22.8,59.3,0.06,8.77,19.9,0.81,50.2,13.4,45.4,9.91,40.8,0.2,22.1,40.1,34.1
